Measurements published in US20080182835A1 (priority 2006, published 2008).
Read-outs that look alike come from different tables or passages of the source.

Assays:
[1] = tested on: baby hamster kidney (BHK) cells; experiment: Cytotoxicity, CellTiter96 Proliferation Assay on BHK cells; format: cell-based
Method: The cytotoxicity of Co(NH3)6 (Structure IV) was assessed by monitoring its ability to inhibit proliferation of baby hamster kidney (BHK) cells. BHK cells were cultured as exponentially growing subconfluent monolayers in complete growth medium, particularly Dulbecco's Modified Eagle's Medium (DMEM) supplemented with 1% (v/v) antibiotic/antimycotic agent and 10% (v/v) heat inactivated fetal bovine serum (FBS). Cells were grown in either T25 or T75 flasks (Acton, Mass.) and incubated at 37° C. under 5% CO2 atmosphere. A subculture was performed every 3-4 days.
The in vitro toxicity of Co(NH3)6 was determined using the CellTiter96® Proliferation Assay (Promega, Madison, Wis.). This quantitative calorimetric assay is based upon the enzymatic conversion of a tetrazolium salt substrate into a blue formazan product with a maximum absorbance at 570 nm. […] At the assay endpoint, the absorbance at 570 nm is directly proportional to the number of viable cells. To assess compound toxicity, BHK cells were seeded into the wells of a 96-well tissue culture microtiter plate (2×10^4 cells/well) and cultured overnight at 37° C. in a humidified atmosphere containing 5% CO2. The next day, Co(NH3)6 was diluted into tissue culture media (at final concentrations ranging from 0 to 5 mM) and incubated with the cells for 72 hrs. Triplicate wells were included for each concentration. To control for any contaminating absorbance due to the compounds, control wells containing no cells were included at each compound concentration (“no cell” wells). At the end of the 72 hour culture period, 15 μL of tetrazolium substrate was added to each well and the plate was returned to the incubator for 4 hours to allow viable cells to convert the substrate into the formazan product. At the end of the 4 hour incubation period, 100 μL of solubilization solution was added to each well and the plate was subsequently incubated overnight to completely solubilize the contents of each well to a homogeneous color. The absorbance within each of the “no cell” wells was subtracted from the absorbance measured in the corresponding wells containing cells for each concentration of Co(NH3)6.

mRNA luciferase template = experiment: Rabbit Reticulocyte Lysate Translation System, luciferase mRNA translation (Western blot); format: biochemical; conditions: same test, CoCyclen data not provided
Method: CoHex is capable of preventing translation of a messenger RNA (mRNA) in vitro. The ability Co(NH3)6 to inhibit translation of an mRNA luciferase template was assessed using the Rabbit Reticulocyte Lysate Translation System (Promega) according to the manufacturer's instructions. In the example discussed below, Co(NH3)6 in various concentrations was incubated with the […] for 10 minutes before the addition of the mRNA template to the translation lysate. Translated luciferase protein was run on a 10% SDSPAGE gel for 45 min at 130 V and detected by Western blot on a PVDF membrane. Proteins were detected using a streptavidinalkaline phosphatase conjugate and Western Blue substrate according to the instructions in the Transcend Non-Radioactive Translation Detection System (Promega). In FIG. 2, Lane 1 represents the incubation of 0.01 mM Co(NH3)6. Lane 2 represents the incubation of 0.02 mM Co(NH3)6. Lane 3 represents the incubation of 0.05 mM Co(NH3)6. Lane 4 represents the incubation of 0.1 mM Co(NH3)6. Lane 5 represents the incubation of 0.2 mM Co(NH3)6. Lane 6 is a positive control in which no Co(NH3)6 is added. Lane 7 is a negative control in which no translation occurs. The lanes marked M are molecular weight marker lanes. […]

Sindbis virus [2] = experiment: Sindbis virus plaque formation assay in BHK cells; format: cell-based, Sindbis virus (633-EGFP strain); conditions: 48 hours
Adenovirus = experiment: Flow cytometry propidium iodide viability of Adenovirus-infected A549 cells; format: cell-based; conditions: 6 hour pretreatment, 48 hours post infection, increasing concentration up to 0.0621 mM
Excerpt: Another example of antiviral activity is an in vitro model of a double stranded DNA (dsDNA) virus infection, Adenovirus. […] The same flow cytometry procedure discussed above for Sindbis viral infection in BHK cells was used for Adenovirus viral infection in A549 cells.

[3] = Ligand exchange with free histidine by UV-VIS and NMR; format: physicochemical; conditions: ratio 100:1 histidine to Co(NH3)6, results not shown
Sindbis virus [4] = experiment: Log(PFU) per percent cell survival, plaque counts combined with CellTiter96 survival of infected BHK cells; format: cell-based; conditions: with increase in concentration, FIG. 4
Excerpt: Because live cell counts will decrease with increasing CoHex complex due to cytotoxicity of the cells and virus replication, but increase due to the anti-viral protection of CoHex, the plaque counts may have decreased due to the fact that there were less live cells available to count. […] The data of FIG. 3C was obtained using the CellTiter96 cell proliferation assay described above for the CoHex cytotoxicity data (i.e., with respect to FIG. 1) in which the cells were further infected with 5 plaque forming units per cell of Sindbis virus in DMEM containing 2% FBS in the absence or presence of various concentrations of Co(NH3)6, then assayed periodically.
Therefore, the fraction cell survival data of FIG. 3C was combined with the log pfu data of FIG. 3A to generate a ratio, Log(PFU) per percent cell survival, which although not a physical measure, is a general model of viruses in surviving cells.

Sindbis virus [5] = tested on: Sindbis virus
Method: In these assays, Sindbis virus replication was assessed by monitoring viral structural protein synthesis using a recombinant Sindbis virus construct. In this construct, the gene encoding enhanced green fluorescent protein (EGFP) was placed under the control of the same promoter sequence that drives transcription of viral structural proteins. Thus, upon Sindbis virus replication, virally infected cells produce intracellular EGFP at levels that are proportional to the level of viral structural proteins.
BHK cells (1×10^5) were plated into the wells of 24-well plates in 1 mL of complete media and incubated with increasing concentrations of Co(NH3)6 for 6 hours prior to infection with Sindbis virus at a multiplicity of infection (moi) of 5 pfu per cell. The infection was allowed to proceed for 48 hours. In preparation for analysis by flow cytometry, cells from each well were removed and pelleted, washed with PBS, and resuspended in 500 μL of PBS. One half of each sample was analyzed directly to determine the percentage of EGFP-positive cells (percent infected cells). The other half of each sample was incubated with 5 μM propidium iodide for 1 minute prior to the determination of the percentage of non-viable cells. In all cases, analysis was performed on 1×10^4 cells.
BHK cells were pretreated with Co(NH3)6 for 6 hours prior to infection with Sindbis virus. After 48 hours post infection, both the percentage of Sindbis-infected cells (as evidenced by EGFP fluorescence) and the percentage of viable cells (as determined by the exclusion of propidium iodide (PI)) were determined as a function of Co(NH3)6 concentrations.

For Co(NH3)6, the cell viability ([1]; 72 hrs, at 2.5 mM) was “about 80%”, the CC50 ([1]; 72 hrs, from FIG. 1, read-out: 50% cytotoxicity concentration (CC50)) was about 3200 µM and the “toxicity compared with cis-Platin” value ([1]; FIG. 1) was “much less toxic”. For the same substance, the “toxicity (inhibition of cellular proliferation)” value ([1]; concentrations below 0.3 mM) was “no significant toxicity”, the “toxicity (inhibition of cellular proliferation)” value ([1]; concentrations below 2.5 mM) was “only mildly toxic” and the “concentration of maximum toxicity” value ([1]; highest concentration tested) was 5000 µM. For the same substance, the “inhibition of protein translation relative to conventional CoCyclen structure” value (mRNA luciferase template) was “about 10 times”, the IC50 (Sindbis virus [2]; BHK cells, read-out: IC50, inhibition of Sindbis virus plaque formation) was about 100 µM and the “maximal inhibition of virus replication, decrease in pfu over control” value (Sindbis virus [2]; at about 2.5 mM) was “about 2.5 log”. For the same substance, the “survival rate of Adenovirus-infected A549 cells” value (Adenovirus) was “increase in survival rate”, the “exchange of ammonia groups with free histidine” value [3] was “does not appear to have labile ligands” and the “Log(PFU) per percent cell survival” value (Sindbis virus [4]) was “significant decrease in viral infection”. For the same substance, the “selectivity ratio CC50/IC50” value (Sindbis virus [5]; Sindbis virus over BHK cells) was “about 25”, the “percentage of EGFP-positive (Sindbis-infected) cells” value (Sindbis virus [5]; at 0.15 mM) was “distinct decrease” and the “effect of timing of administration on inhibition of EGFP expression” value (Sindbis virus [5]; pretreatment, co-infection or early post-treatment) was “equally effective”. For the same substance, the IC50 (Sindbis virus [5]; read-out: IC50, inhibition of EGFP expression, 6 hours pretreatment, 48 hours post infection, moi 5) was 130 ± 40 µM.
